Reference: the NIST ThermoML archive (doi:10.1021/acs.jced.6b00232)
Numbers after ± are expanded uncertainties.

Experiment: mn = molality of the nth substance listed, in mol/kg
Conditions: 84.5 kPa, Liquid; for speed of sound: Frequency=3 MHz, Sing-around technique in a fixed-path interferometer; for mass density: Vibrating tube method

O=C(CO)[C@@H](O)[C@H](O)[C@H](O)CO [D-fructose] + O
Conditions	mass density, 288.15 K [kg/m3]	mass density, 293.15 K [kg/m3]	mass density, 298.15 K [kg/m3]	mass density, 303.15 K [kg/m3]	mass density, 308.15 K [kg/m3]	speed of sound, 288.15 K [m/s]	speed of sound, 293.15 K [m/s]	speed of sound, 298.15 K [m/s]	speed of sound, 303.15 K [m/s]	speed of sound, 308.15 K [m/s]
m1 = 0.1716	–	–	1008.73 ± 0.3	–	–	1478.9 ± 1.2	1494.4 ± 1.2	1508 ± 1.2	1519.8 ± 1.2	1529.9 ± 1.2
m1 = 0.2312	1015.03 ± 0.3	1013.99 ± 0.3	1012.69 ± 0.3	–	1009.43 ± 0.3	1483.2 ± 1.2	1498.5 ± 1.2	1511.8 ± 1.2	–	1533.4 ± 1.2
m1 = 0.292	1019.08 ± 0.3	1018 ± 0.3	1016.66 ± 0.3	1015.1 ± 0.3	1013.34 ± 0.3	1487.5 ± 1.2	–	1515.7 ± 1.2	1527.1 ± 1.2	1536.9 ± 1.2
m1 = 0.4825	1031.39 ± 0.3	1030.21 ± 0.3	1028.76 ± 0.3	1027.1 ± 0.3	1025.25 ± 0.3	1500.9 ± 1.2	1515.3 ± 1.2	–	–	1547.8 ± 1.2
m1 = 0.6161	1039.7 ± 0.3	1038.45 ± 0.3	1036.93 ± 0.3	1035.21 ± 0.3	1033.29 ± 0.3	1510.2 ± 1.2	1524.1 ± 1.2	1536.2 ± 1.2	1546.5 ± 1.2	1555.3 ± 1.2
m1 = 0.9787	1061.06 ± 0.31	1059.67 ± 0.31	1057.92 ± 0.31	1056.02 ± 0.31	1053.95 ± 0.31	1534.7 ± 1.2	1547.5 ± 1.3	1558.4 ± 1.3	1567.7 ± 1.3	1575.5 ± 1.3
m1 = 1.386	1083.13 ± 0.31	1081.5 ± 0.31	1079.62 ± 0.31	1077.55 ± 0.31	1075.32 ± 0.31	1561.6 ± 1.3	1572.9 ± 1.3	1582.5 ± 1.3	1590.7 ± 1.3	1597.3 ± 1.3
m1 = 1.851	1106.02 ± 0.32	1104.26 ± 0.32	1102.2 ± 0.32	1099.94 ± 0.32	1097.55 ± 0.32	1588.9 ± 1.3	1599.1 ± 1.3	1607.5 ± 1.3	1614.3 ± 1.3	1619.9 ± 1.3
m1 = 2.379	1129.63 ± 0.32	1127.76 ± 0.32	1125.52 ± 0.32	1123.09 ± 0.32	1120.53 ± 0.32	1622.1 ± 1.3	1630.8 ± 1.3	1637.6 ± 1.3	1643 ± 1.3	1647.2 ± 1.3
m1 = 2.981	1153.68 ± 0.33	1151.66 ± 0.33	1149.24 ± 0.33	1146.65 ± 0.33	1143.92 ± 0.33	1655.5 ± 1.3	1662.7 ± 1.3	1668 ± 1.3	1671.9 ± 1.3	1674.7 ± 1.3
m1 = 3.667	1178.12 ± 0.34	1175.94 ± 0.34	1173.34 ± 0.34	1170.58 ± 0.34	1167.69 ± 0.34	1691 ± 1.4	1696.5 ± 1.4	1700.1 ± 1.4	1702.5 ± 1.4	1703.9 ± 1.4

O=C[C@H](O)[C@@H](O)[C@H](O)[C@H](O)CO [D-glucose] + O
Conditions	mass density, 288.15 K [kg/m3]	mass density, 293.15 K [kg/m3]	mass density, 298.15 K [kg/m3]	mass density, 303.15 K [kg/m3]	mass density, 308.15 K [kg/m3]	speed of sound, 288.15 K [m/s]	speed of sound, 293.15 K [m/s]	speed of sound, 298.15 K [m/s]	speed of sound, 303.15 K [m/s]	speed of sound, 308.15 K [m/s]
m1 = 0.2921	1018.67 ± 0.3	1017.62 ± 0.3	1016.34 ± 0.3	1014.83 ± 0.3	1013.12 ± 0.3	–	1501 ± 1.2	1514.3 ± 1.2	1526 ± 1.2	1535.9 ± 1.2
m1 = 0.4836	1030.78 ± 0.3	1029.64 ± 0.3	1028.28 ± 0.3	1026.7 ± 0.3	1024.93 ± 0.3	1498.4 ± 1.2	1513 ± 1.2	1525.9 ± 1.2	1537.1 ± 1.2	1546.6 ± 1.2
m1 = 0.6164	1038.85 ± 0.3	1037.66 ± 0.3	1036.24 ± 0.3	1034.62 ± 0.3	1032.81 ± 0.3	1507 ± 1.2	1521.3 ± 1.2	1533.9 ± 1.2	1544.7 ± 1.2	1554 ± 1.2
m1 = 0.9795	1059.74 ± 0.31	1058.4 ± 0.31	1056.86 ± 0.31	1055.12 ± 0.31	1053.22 ± 0.31	1530.3 ± 1.2	–	1555.2 ± 1.2	1565.2 ± 1.2	1573.6 ± 1.2
m1 = 1.388	1081.24 ± 0.31	1079.76 ± 0.31	1078.09 ± 0.31	1076.24 ± 0.31	1074.24 ± 0.31	1555.6 ± 1.2	1567.8 ± 1.2	1578.4 ± 1.2	1587.4 ± 1.2	1595 ± 1.2
m1 = 1.85	1103.58 ± 0.31	1101.95 ± 0.31	1100.14 ± 0.31	1098.18 ± 0.31	1096.07 ± 0.31	1583.6 ± 1.2	1594.7 ± 1.2	1604.2 ± 1.3	1612.2 ± 1.3	1618.8 ± 1.3
m1 = 2.379	1126.54 ± 0.31	1124.77 ± 0.31	1122.85 ± 0.31	1120.79 ± 0.31	1118.58 ± 0.31	1613.6 ± 1.3	1623.3 ± 1.3	1631.7 ± 1.3	1638.6 ± 1.3	1644.3 ± 1.3
m1 = 2.989	1150.24 ± 0.32	1148.34 ± 0.32	1146.3 ± 0.32	1144.14 ± 0.32	1141.85 ± 0.32	1646 ± 1.3	1654.4 ± 1.3	1661.4 ± 1.3	1667.2 ± 1.3	1671.8 ± 1.3
m1 = 3.7	1174.74 ± 0.32	1172.71 ± 0.32	1170.56 ± 0.32	1168.3 ± 0.32	1165.92 ± 0.32	1681.2 ± 1.3	1688 ± 1.3	1693.8 ± 1.3	1698.3 ± 1.3	1701.8 ± 1.3

OC[C@H]1O[C@@](CO)(O[C@H]2O[C@H](CO)[C@@H](O)[C@H](O)[C@H]2O)[C@@H](O)[C@@H]1O [D-sucrose] + O
Conditions	mass density, 288.15 K [kg/m3]	mass density, 293.15 K [kg/m3]	mass density, 298.15 K [kg/m3]	mass density, 303.15 K [kg/m3]	mass density, 308.15 K [kg/m3]	speed of sound, 288.15 K [m/s]	speed of sound, 293.15 K [m/s]	speed of sound, 298.15 K [m/s]	speed of sound, 303.15 K [m/s]	speed of sound, 308.15 K [m/s]
m1 = 0.09036	1010.86 ± 0.3	1009.89 ± 0.3	1008.67 ± 0.3	1007.22 ± 0.3	1005.55 ± 0.3	1475.4 ± 1.2	1491.1 ± 1.2	1504.9 ± 1.2	1516.9 ± 1.2	1527.3 ± 1.2
m1 = 0.1217	1014.83 ± 0.3	1013.84 ± 0.3	1012.59 ± 0.3	1011.12 ± 0.3	1009.43 ± 0.3	1478.5 ± 1.2	1494 ± 1.2	1507.7 ± 1.2	1519.6 ± 1.2	1529.8 ± 1.2
m1 = 0.1537	1018.82 ± 0.3	1017.8 ± 0.3	1016.53 ± 0.3	1015.04 ± 0.3	1013.34 ± 0.3	1481.6 ± 1.2	1497 ± 1.2	1510.6 ± 1.2	1522.3 ± 1.2	1532.5 ± 1.2
m1 = 0.2538	1030.98 ± 0.31	1029.88 ± 0.31	1028.55 ± 0.31	1027 ± 0.31	1025.25 ± 0.31	1491.5 ± 1.2	1506.4 ± 1.2	1519.5 ± 1.3	1530.9 ± 1.3	1540.7 ± 1.3
m1 = 0.3245	1039.25 ± 0.31	1038.1 ± 0.31	1036.73 ± 0.31	1035.14 ± 0.31	1033.35 ± 0.31	1498.3 ± 1.3	1513 ± 1.3	1525.8 ± 1.3	1537 ± 1.3	1546.5 ± 1.3
m1 = 0.5156	1060.41 ± 0.31	1059.13 ± 0.31	1057.64 ± 0.31	1055.96 ± 0.31	1054.09 ± 0.31	1516.8 ± 1.3	1530.7 ± 1.3	1542.8 ± 1.3	1553.2 ± 1.3	1562 ± 1.3
m1 = 0.729	1082.25 ± 0.32	1080.85 ± 0.32	1079.25 ± 0.32	1077.46 ± 0.32	1075.5 ± 0.32	1537.3 ± 1.3	1550.2 ± 1.3	1561.5 ± 1.3	1571.1 ± 1.3	1579.2 ± 1.3
m1 = 0.9736	1105.1 ± 0.34	1103.56 ± 0.34	1101.84 ± 0.34	1099.96 ± 0.34	1097.9 ± 0.34	1559.9 ± 1.4	1571.9 ± 1.4	1582.2 ± 1.4	1591 ± 1.4	1598.4 ± 1.4
m1 = 1.252	1128.74 ± 0.36	1127.07 ± 0.36	1125.24 ± 0.36	1123.25 ± 0.36	1121.11 ± 0.36	1585.2 ± 1.4	1596.1 ± 1.4	1605.4 ± 1.4	1613.3 ± 1.4	1619.7 ± 1.4
m1 = 1.573	1153.12 ± 0.39	1151.33 ± 0.39	1149.38 ± 0.39	1147.28 ± 0.39	1145.06 ± 0.39	1613 ± 1.5	1622.7 ± 1.5	1630.9 ± 1.5	1637.7 ± 1.5	1643.2 ± 1.5
m1 = 1.948	1178.48 ± 0.43	1176.55 ± 0.43	1174.48 ± 0.42	1172.29 ± 0.42	1169.98 ± 0.42	1643.8 ± 1.5	1652.1 ± 1.5	1659.1 ± 1.5	1664.8 ± 1.5	1669.3 ± 1.5
